From US12440537B1, “Compositions and methods for treating skin diseases, disorders, or conditions” (Washington University, priority 2020, dated 2025) come the findings set out here.

Ends that are not written are not given here.

Test [1] has as its system keratinocytes. In words: IVL peptide protection against keratinocyte cell (detergent) lysis. Conditions: keratinocytes treated with IVL late repeat peptide. In kind it is cell-based.
Test [2] concerns keratinocytes. The test is described as follows: Keratinocyte barrier function after IVL peptide treatment. The class given is cell-based. Conditions: keratinocytes treated with IVL peptide.
The target of test [3] is T1, vitamin D receptor (Mus musculus, UniProt P48281).
T1 sequence (P48281 1-422): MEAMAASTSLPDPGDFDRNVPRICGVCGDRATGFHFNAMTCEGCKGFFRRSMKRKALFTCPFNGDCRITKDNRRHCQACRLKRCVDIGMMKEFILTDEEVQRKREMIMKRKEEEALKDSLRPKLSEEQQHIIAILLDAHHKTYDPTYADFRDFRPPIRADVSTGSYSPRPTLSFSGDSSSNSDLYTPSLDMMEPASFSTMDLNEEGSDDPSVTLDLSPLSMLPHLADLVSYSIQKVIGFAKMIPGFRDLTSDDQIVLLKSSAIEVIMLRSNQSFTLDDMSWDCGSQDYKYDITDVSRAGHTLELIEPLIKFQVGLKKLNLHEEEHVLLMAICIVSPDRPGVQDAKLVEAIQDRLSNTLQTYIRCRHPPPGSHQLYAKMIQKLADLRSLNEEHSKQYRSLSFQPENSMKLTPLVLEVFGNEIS
In words: Nuclear localization of vitamin D receptor in MC903-treated keratinocytes. The class given is cell-based. Also noted: endogenous in cells; host or cells: Ivl-/- keratinocytes. Conditions: MC903 treated lvl-/- keratinocytes.

The target in test [4] is T1, vitamin D receptor. The test is described as follows: MC903 vitamin D receptor-mediated skin inflammation in WT and Involucrin (lvl) -/- mice. The class given is in vivo. Also on record: from tissue; host or cells: skin of WT and Ivl-/- mice (in vivo). As for the experimental part:
Here, vitamin D receptor-mediated skin inflammation was induced in Involucrin (lvl) -/- mice and vitamin D receptor function in the epidermis was evaluated (see e.g., FIG. 14). It was shown that vitamin D receptor-induced inflammation is reduced in lvl^-/- skin (see e.g., FIG. 15). […] Basophils are a major source of IL-4 and IL-6 expression that drives skin inflammation (see e.g., FIG. 21).

Take “ELPEQQEGQL (ELPEQQEGQL-NH2) [IVL peptide]”: the results for the “protection against keratinocyte cell lysis” value with keratinocytes [1], in the test with keratinocytes [1] (listed as IVL late repeat peptide) and in the test on keratinocytes [1] (listed as “late” repeat IVL peptide) were “protects against keratinocyte cell lysis”, “protects the keratinocyte from detergent lysis” and “resistant to detergent lysis”, respectively. Moreover, the keratinocyte barrier function entry in the test on keratinocytes [2] was “improves keratinocyte barrier function”.

`C=C1/C(=C\C=C2/CCC[C@]3(C)[C@@H]([C@H](C)/C=C/[C@@H](O)C4CC4)CC[C@@H]23)C[C@@H](O)C[C@@H]1O` [MC903]: the “nuclear localization of vitamin D receptor” value at vitamin D receptor [3] is reported as “loss of nuclear localization of vitamin D receptor”. In addition, at vitamin D receptor [4] (MC903-treated lvl-/- skin), the “CD4+ T cells” value is on record as “significantly decreased”; the “cell type populations (scRNA-seq)” value was “Decreased basophils, macrophages, CD4^+ T cells, and basal II keratinocytes, and increased suprabasal keratinocytes”. For the same compound, the “vitamin D receptor induced inflammation” value at vitamin D receptor [4] (MC903 treatment, lvl-/- skin compared to WT) is “significantly reduced as early as day 6”.
